Reference: patent US11712429B2, “Low eructation composition and methods for treating and/or preventing cardiovascular disease in a subject with fish allergy/hypersensitivity” (Amarin Pharmaceuticals Ireland Limited, priority 2010, dated 2023)

Legend:
Type in all cases: in vivo, human
[1] = Essential fatty acid (EFA) measurements in plasma and RBC, AAMI study
Description: (3) assess the potential dose-effect relationship of E-EPA on the cognitive endpoints by measurement of essential fatty acids in plasma and red blood cell membranes. 94 subjects were randomized. Blood samples (10 mL) were collected at Visit 1 (screening) and at Visits 4, 5 and 6. Analysis was performed by MSR Lipid Analysis, Scottish Crop Research Institute, Dundee, UK. The screening sample acted as baseline for the EFA measurements. Lipid was extracted from plasma, serum and RBC suspensions and converted into fatty acid methyl esters which were analyzed by gas chromatography to give fatty acid profiles as micrograms fatty acid per gram of sample (μgFA/g) and normalized area percent. The CDR computerized system has been used to measure the effects of pharmaceuticals on cognitive function in a variety of clinical trials. Efficacy was assessed by a battery of cognition tests designed by CDR. Safety data were analyzed by Quanticate. RBC and plasma EFA data were collected at baseline, Day 14, 28 and 42 and summarized by visit for each treatment group. Change from baseline and percent change from baseline were also summarized. ANCOVA comparison of ethyl-EPA dose groups and ethyl-EPA versus placebo was performed.

[2] = test system: individuals with Huntington disease; assay: Huntington disease trial (TREND-HD): non-fasting triacylglycerols and total cholesterol
Description: Eligible study participants provided written consent. […] The outcome measure of this study was the change in non-fasting triacylglycerol (TG) levels in those on AMR101 compared to those on placebo. Changes in lipid levels were compared using an analysis of covariance (ANCOVA) with treatment group as the factor of interest, site as a stratification factor, and baseline value as a covariate. All individuals who received study medication were included in the safety analysis. For each type of adverse event, the treatment groups were compared regarding the occurrence of at least one event using Fisher's exact test.

[3] = test system: patients with fasting triglyceride levels ≥500 mg/dL; assay: Phase 3 12-week double-blind study: treatment-emergent adverse events; settings: 12 weeks
Description: A multi-center, placebo-controlled randomized, double-blind, 12-week study with an open-label extension was performed to evaluate the efficacy and safety of AMR101 in patients with fasting triglyceride levels ≥500 mg/dL. The primary objective of the study was to determine the efficacy of AMR101 2 g daily and 4 g daily, compared to placebo, in lowering fasting TG levels in patients with fasting TG levels ≥500 mg/dL and ≤1500 mg/dL (≥5.65 mmol/L and ≤16.94 mmol/L). Approximately 240 patients were randomized at approximately 50 centers in North America, South America, Central America, Europe, India, and South Africa. The Phase 3, multi-center study consisted of 3 study periods: (1) A 6- to 8-week screening period that includes a diet and lifestyle stabilization and washout period and a TG qualifying period; (2) A 12-week, double-blind, randomized, placebo-controlled treatment period; and (3) A 40-week, open-label, extension period. After confirmation of qualifying fasting TG values, eligible patients entered a 12-week, randomized, double-blind treatment period. At Visit 4 (Week 0), patients were randomly assigned to 1 of the following treatment groups: • AMR101 2 g daily, • AMR101 4 g daily, or • Placebo. Eligible patients were randomly assigned at Visit 4 (Week 0) to receive orally AMR101 2 g daily, AMR101 4 g daily, or placebo for the 12-week double-blind treatment period. AMR101 was provided in 1 g liquid-filled, oblong, gelatin capsules. The matching placebo capsule was filled with light liquid paraffin and contained 0 g of AMR101. During the double-blind treatment period, patients took 2 capsules (AMR101 or matching placebo) in the morning and 2 in the evening for a total of 4 capsules per day. Patients in the AMR101 2 g/day treatment group received 1 AMR101 1 g capsule and 1 matching placebo capsule in the morning and in the evening. Patients in the AMR101 4 g/day treatment group received 2 AMR101 1 g capsules in the morning and evening. The efficacy variable for the open-label extension period was percent change in fasting TG from extension baseline to end of treatment. Safety assessments included adverse events, clinical laboratory measurements (chemistry, hematology, and urinalysis), 12-lead electrocardiograms (ECGs), vital signs, and physical examinations Top line results of the study are shown in FIGS. 3 and 4. Adverse events are shown in Table 9 by comparison with placebo and those experienced by subjects taking commercially available mixture of E-EPA and E-DHA (Lovaza).

CC/C=C\C/C=C\C/C=C\C/C=C\C/C=C\CCCC(=O)OCC [AMR101, all-cis eicosa-5,8,11,14,17-pentaenoic acid ethyl ester]
Percent Fatty Acid Change from Baseline: AA ([1]; 4 g dose, plasma, 6 weeks): −21.9%
Percent Fatty Acid Change from Baseline: DGLA ([1]; 4 g dose, plasma, 6 weeks): −39.4%
Percent Fatty Acid Change from Baseline: DHA ([1]; 4 g dose, plasma, 6 weeks): −17.5%
Percent Fatty Acid Change from Baseline: DPA ([1]; 4 g dose, plasma, 6 weeks): +147%
EPA, DPAn-3 and EPA/AA ratio plasma and RBC values ([1]; baseline to Day 42, 1, 2, and 4 g treatment groups): increased substantially
AA, DHA and DGLA values ([1]; change from baseline, data not shown): decreased substantially
Total cholesterol reduction ([2]; 1 gram twice/day, after 6 months, baseline 204 mg/dL, p=0.009 vs placebo): 9.5 mg/dL
decrease in TGs ([2]; 1 gram twice/day, after 6 months, non-fasting, baseline 171, p=0.007 vs placebo): 26 mg/dL
Change in triglycerides after 6 months (mean mg/dL ± SD) ([2]; 1 gram twice/day, baseline 171 ± 108, p .007): -25.8 ± 89.1 mg/dL
Change in total cholesterol after 6 months (mean mg/dL ± SD) ([2]; 1 gram twice/day, baseline 204 ± 41.4, p .009): -9.5 ± 28.6 mg/dL
Change in triglycerides after 12 months (mean mg/dL ± SD) ([2]; second 6 months open-label, p 0.66): -17.7 ± 86.7 mg/dL
Change in total cholesterol after 12 months (mean mg/dL ± SD) ([2]; second 6 months open-label, p 0.95): -5.6 ± 25.5 mg/dL
Diarrhea ([3]; 2 g/day, N = 76): 4 (5.3) n (%)
Dyspepsia ([3]; 2 g/day, N = 76): 1 (1.3) n (%)
Eructation ([3]; 2 g/day, N = 76): 1 (1.3) n (%)
Hypertension ([3]; 2 g/day, N = 76): 4 (5.3) n (%)
Infection ([3]; 2 g/day, N = 76): 2 (2.6) n (%)
Nausea ([3]; 2 g/day, N = 76): 5 (6.6) n (%)
Skin rash ([3]; 2 g/day, N = 76): 1 (1.3) n (%)
Subjects with any TEAE ([3]; 2 g/day, N = 76): 27 (35.5) n (%)
Diarrhea ([3]; 4 g/day, N = 77): 1 (1.3) n (%)
Dyspepsia ([3]; 4 g/day, N = 77): 1 (1.3) n (%)
Eructation ([3]; 4 g/day, N = 77): 0 (0.0) n (%)
Hypertension ([3]; 4 g/day, N = 77): 1 (1.3) n (%)
Infection ([3]; 4 g/day, N = 77): 4 (5.2) n (%)
Nausea ([3]; 4 g/day, N = 77): 1 (1.3) n (%)
Skin rash ([3]; 4 g/day, N = 77): 0 (0.0) n (%)
Subjects with any TEAE ([3]; 4 g/day, N = 77): 28 (36.4) n (%)
